Several values for one entry are separate records, joined by “and”; a condition that tells them apart may be missing. Identical values can stand only once. Toxic doses and inconclusive results are not listed. How the source made its calls: active means survival T/C of 150% or more; inactive means T/C below 125% in these data.
Tested on: P388 leukemia ip, CD2F1 mice, survival T/C
Assay: NCI In Vivo Anticancer Drug Screen. Data for tumor model P388 Leukemia (intraperitoneal) in CD2F1 (CDF1) mice
Conditions: endpoint: median survival time, higher = longer survival
In short: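 Mice carrying the transplanted tumor received test compound or vehicle. Survival was recorded in each group, and the value is the treated-group measurement divided by that of the vehicle-treated control group.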

[1] = dose: 100.0 mg/kg/injection, schedule: Q01DX001 (ip), vehicle: Klucel (hydroxypropylcellulose) (HPC)
[2] = dose: 200.0 mg/kg/injection, schedule: Q01DX001 (ip), vehicle: Klucel (hydroxypropylcellulose) (HPC)
[3] = dose: 400.0 mg/kg/injection, schedule: Q01DX001 (ip), vehicle: Klucel (hydroxypropylcellulose) (HPC)
[4] = dose: 100.0 mg/kg/injection, schedule: Q04DX003 (ip), vehicle: saline
[5] = dose: 200.0 mg/kg/injection, schedule: Q04DX003 (ip), vehicle: saline
[6] = dose: 100.0 mg/kg/injection, schedule: Q04DX003 (ip), vehicle: Klucel (hydroxypropylcellulose) (HPC)
[7] = dose: 200.0 mg/kg/injection, schedule: Q04DX003 (ip), vehicle: Klucel (hydroxypropylcellulose) (HPC)
[8] = dose: 400.0 mg/kg/injection, schedule: Q04DX003 (ip), vehicle: Klucel (hydroxypropylcellulose) (HPC)
[9] = dose: 12.5 mg/kg/injection, schedule: Q01DX009 (ip), vehicle: saline
[10] = dose: 25.0 mg/kg/injection, schedule: Q01DX009 (ip), vehicle: saline
[11] = dose: 50.0 mg/kg/injection, schedule: Q01DX009 (ip), vehicle: saline
[12] = dose: 6.25 mg/kg/injection, schedule: Q01DX009 (ip), vehicle: saline

Measured: T/C

COCC1(C)CCCC2(C)C3=C(CC=C(OC)C3)CCC12 (stereo not drawn)
inactive: [1] 102 % of control | [2] 94 % of control | [3] 90 % of control

CN1CCCC(Cl)(C(=O)c2ccccc2)C1 (stereo not drawn)
inactive: [4] 106 % of control | [5] 100 % of control

O=C(c1ccccc1)c1no[n+]([O-])c1C(=O)c1ccccc1
inactive: dose: 3.12 mg/kg/injection, schedule: Q01DX009 (ip), vehicle: Klucel (hydroxypropylcellulose) (HPC) 102 % of control and 114 % of control and 116 % of control | dose: 6.25 mg/kg/injection, schedule: Q01DX009 (ip), vehicle: Klucel (hydroxypropylcellulose) (HPC) 100 % of control and 117 % of control | dose: 12.5 mg/kg/injection, schedule: Q01DX009 (ip), vehicle: Klucel (hydroxypropylcellulose) (HPC) 105 % of control and 123 % of control

CN1C(=O)/C(=C2\SC(=O)N(CN3CCCCC3)C2=O)c2ccccc21
inactive: dose: 50.0 mg/kg/injection, schedule: Q01DX005 (ip), vehicle: Klucel (hydroxypropylcellulose) (HPC) 92 % of control | dose: 100.0 mg/kg/injection, schedule: Q01DX005 (ip), vehicle: Klucel (hydroxypropylcellulose) (HPC) 100 % of control | dose: 200.0 mg/kg/injection, schedule: Q01DX005 (ip), vehicle: Klucel (hydroxypropylcellulose) (HPC) 99 % of control

COCCCN1CNC(=S)NC1
inactive: dose: 50.0 mg/kg/injection, schedule: Q01DX005 (ip), vehicle: saline with Tween-80 101 % of control | dose: 100.0 mg/kg/injection, schedule: Q01DX005 (ip), vehicle: saline with Tween-80 100 % of control | dose: 200.0 mg/kg/injection, schedule: Q01DX005 (ip), vehicle: saline with Tween-80 101 % of control

c1ccc2sc(SSN3CCOCC3)nc2c1
inactive: dose: 50.0 mg/kg/injection, schedule: Q01DX009 (ip), vehicle: suspension in saline 97 % of control | dose: 100.0 mg/kg/injection, schedule: Q01DX009 (ip), vehicle: suspension in saline 106 % of control | dose: 200.0 mg/kg/injection, schedule: Q01DX009 (ip), vehicle: suspension in saline 95 % of control | dose: 400.0 mg/kg/injection, schedule: Q01DX009 (ip), vehicle: suspension in saline 90 % of control

COc1cc(C2c3cc4c(cc3CC3COC(=O)N32)OCO4)cc(OC)c1OC (stereo not drawn)
inactive: dose: 3.75 mg/kg/injection, schedule: Q01DX005 (ip), vehicle: Klucel (hydroxypropylcellulose) (HPC) 98 % of control and 92 % of control | dose: 7.5 mg/kg/injection, schedule: Q01DX005 (ip), vehicle: Klucel (hydroxypropylcellulose) (HPC) 88 % of control and 91 % of control and 92 % of control | dose: 15.0 mg/kg/injection, schedule: Q01DX005 (ip), vehicle: Klucel (hydroxypropylcellulose) (HPC) 92 % of control (2×) and 97 % of control

CCOc1ccc2c(ccc(/C=C\c3cc(C)c4cccnc4c3O)[n+]2C)c1
inactive: dose: 3.13 mg/kg/injection, schedule: Q01DX009 (ip), vehicle: saline with Tween-80 121 % of control | dose: 6.25 mg/kg/injection, schedule: Q01DX009 (ip), vehicle: saline with Tween-80 121 % of control

CCn1c2ccccc2c2cc(N)c(N=Nc3ccc(-c4ccc(N)c(OC)c4)cc3OC)cc21
inactive: [6] 94 % of control | [7] 95 % of control | [8] 88 % of control

COC1NC(=O)N(C(C)C)C1(C)C (stereo not drawn)
inactive: [9] 101 % of control | [10] 101 % of control | [11] 100 % of control and 97 % of control | dose: 200.0 mg/kg/injection, schedule: Q01DX009 (ip), vehicle: saline 107 % of control

CS/C(N)=N/NC(=O)CCC(=O)Nc1cc(Cl)c(Cl)cc1Cl
inactive: dose: 100.0 mg/kg/injection, schedule: Q04DX002 (ip), vehicle: saline with Tween-80 102 % of control | dose: 200.0 mg/kg/injection, schedule: Q04DX002 (ip), vehicle: saline with Tween-80 100 % of control | dose: 400.0 mg/kg/injection, schedule: Q04DX002 (ip), vehicle: saline with Tween-80 96 % of control

CCCCC(C)(CN(C)C)C(=O)/C=C/c1ccc(Cl)c(Cl)c1 (stereo not drawn)
inactive: dose: 3.13 mg/kg/injection, schedule: Q01DX009 (ip), vehicle: saline 111 % of control and 97 % of control | [12] 102 % of control and 108 % of control | [9] 109 % of control | [10] 106 % of control and 109 % of control

CCN1NC1C (stereo not drawn)
inactive: dose: 50.0 mg/kg/injection, schedule: Q01DX005 (ip), vehicle: saline 105 % of control | dose: 100.0 mg/kg/injection, schedule: Q01DX005 (ip), vehicle: saline 97 % of control | dose: 200.0 mg/kg/injection, schedule: Q01DX005 (ip), vehicle: saline 97 % of control

CCOC(=O)/C(C#N)=N/O
inactive: [12] 104 % of control and 114 % of control and 90 % of control | [9] 102 % of control and 104 % of control and 95 % of control | [10] 111 % of control and 97 % of control | [11] 101 % of control and 104 % of control and 107 % of control

CCOP(O)(=S)OCC
inactive: dose: 12.5 mg/kg/injection, schedule: Q01DX001 (ip), vehicle: saline 94 % of control | dose: 25.0 mg/kg/injection, schedule: Q01DX001 (ip), vehicle: saline 100 % of control | [1] 89 % of control | dose: 100.0 mg/kg/injection, schedule: Q01DX001 (ip), vehicle: saline 103 % of control | [6] 92 % of control | [4] 88 % of control | [2] 108 % of control | dose: 200.0 mg/kg/injection, schedule: Q01DX001 (ip), vehicle: saline 98 % of control and 106 % of control | [7] 89 % of control | [5] 90 % of control | [3] 92 % of control | dose: 400.0 mg/kg/injection, schedule: Q01DX001 (ip), vehicle: saline 108 % of control and 106 % of control | [8] 90 % of control | dose: 400.0 mg/kg/injection, schedule: Q04DX003 (ip), vehicle: saline 101 % of control
